Columns and labels:
[1] = tested on: HIV-1 Gag expression in SupT1 NLESG cells; test: Gag (p24) ELISA in SupT1 24STNLESG cells after PMA induction; assay type: cell-based; settings: for inhibition of HIV-1 gene expression in CD4+ SupT1 cells: Figure S1; for IC50: Human immunodeficiency virus 1, SUP-T1
Description: Additional file 1: Figure S1. 791 and 833 Suppress HIV-1 Gene Expression in SupT1 24NESLG Cell Line. a Schematic of HIV-1 provirus used to generated the stably transduced SupT1 cell line. b Effect of 791 and 833 on Gag expression in SupT1 NLESG cells. Cells were treated with indicated concentrations of 791/833 then HIV-1 expression induced by PMA addition. Media harvested after 24 h was subsequently assayed using Gag (p24) ELISA. Cell viability was measured by an XTT assay. 892 was not active in this cell line at the concentrations tested Additional file 2: Figure S7. Effect of compounds on CEM-GXR cell viability. Evaluation of 791, 833, and 892 on CEM-GXR cell viability in the Guava ViaCount assay. Cells were analyzed after 24 h incubation with the compounds at the indicated concentrations ranging between 0–47 μM (791), 0–5 μM (833), or 0–62.5 μM (892). Results are expressed as the percentage (%) of viable cells relative to DMSO treatment ±SEM of two independent experiments performed in triplicate. Cytotoxic concentration resulting in the death of 50% of the host cells (CC50) relative to DMSO measured by ViaCount assay (Millipore) are listed in Table 1 Additional file 3: Table S1. Mutations in HIV-1 proteins associated with resistance to ARVs Additional file 4: Figure S2.Pattern of HIV-1 RNA splicing. Shown at the top is the organization of the HIV-1 proviral genome indicating the position of the multiple 5′ splice donor sites (SD1–SD4) and 3′ splice acceptor sites (SA1–SA7) used in splicing of pre-mRNA. In the middle is an illustration of the alternatively spliced RNAs generated by processing of the HIV-1 genomic RNA. Indicated are the common (open boxes) and alternative exons (closed boxes) used in the generation of the SS (4 kb) and MS (1.8 kb) viral RNAs. At the bottom is a list of the nomenclature used to refer to the exon composition of the individual RNAs generated for both the SS and MS classes of HIV-1 RNAs Additional file 5: Figure S3. Characterization of HeLa rtTA HIVGagGFP cell line. a Representative images of HeLa rtTA HIVGagGFP C7 cells treated with DMSO in the absence (uninduced) or presence (induced) of doxycyclin (N ≥ 3). Cells were viewed at 630X (oil immersion) magnification. Images are cropped to show a representative field of view. b The dose range of the compounds which inhibit HIV-1 GagGFP expression in HeLa rtTA HIVGagGFP C7 cells was measured by mean fluorescence intensity and expressed relative to fluorescence intensity in DMSO-treated samples (N ≥ 3, *p ≤ 0.05, **p ≤ 0.01, and ***p ≤ 0.001). The effect of the compounds on cellular metabolism at the indicated concentrations was measured using an XTT assay as a readout of viable cells and expressed relative to absorbance reads of DMSO-treated samples (N ≥ 3, *p ≤ 0.05, **p ≤ 0.01, and ***p ≤ 0.001). Error bars indicate standard error of the mean (SEM) Additional file 6: Figure S4. […] MG132 (10 μM) was added for 8 h as an additional control to determine whether inhibition of the proteasome prevents protein degradation. All uninduced (unind.) and 0 h samples were treated with DMSO. GAPDH serves as loading control. b Summary of effect of compounds on HIV-1 Tat degradation. Band volume intensities of both p14 and p16 Tat isoforms were calculated for each treatment relative to that of the DMSO control treatment and were then normalized to corresponding GAPDH bands (N ≥ 3, except for 833, N = 1–2). […]

[2] = tested on: HIV-1 clade A (N54), clade B (IIIB), PRI-, RTI- and INI-resistant strains; test: HIV-1 replication in CEM-GXR cells (GFP positive cells, flow cytometry); assay type: cell-based; settings: for IC50: Human immunodeficiency virus 1, IIIB, CEM-GXR; for HIV-1 replication of all viruses tested: clade A N54, clade B IIIB, PRI-, RTI-, INI-resistant strains
Text: Effects of compound treatment on HIV-1 gene expression were initially assessed in the context of HeLa rtTA HIV∆Mls cells stably transduced with an inducible Tet-On HIV-1 system (as previously described). The provirus was modified by either deletion in the reverse transcriptase and integrase region of the pol gene by an MlsI restriction digest (HeLa rtTA HIV∆Mls cell line) or GFP fusion to Gag, deleting the PR and RT-coding regions (HeLa rtTA HIVGagGFP cell line). […] All cell lines were maintained in Iscove’s modified Delbecco’s medium (IMDM; Wisent) supplemented with 10% (vol/vol) fetal bovine serum (FBS, Wisent), 1% penicillin/streptomycin (P/S, Wisent) and 0.2% Amphotericin B (Wisent). Indicator cell line CEM-GXR was obtained from Dr. Mark Brockman (Simon Fraser University). The RTI-resistant virus (E00443) was obtained from Dr. Zabrina Brumme (Simon Fraser University). The HIV-1 clade A (97USSN54 (N54)), HIV-1 clade B (IIIB), integrase inhibitor resistant virus (11845), protease inhibitor resistant virus (2948) were obtained through the NIH AIDS Research and Reference reagent program, Division of AIDS, NIAID, NIH).
To assess the activity of compounds against HIV-1 strains having resistance to various ART drugs, assays were performed in the context of CEM-GXR cells. These cells express CD4, CXCR4, and coreceptor, CCR5 as well as an exogenous Tat-driven LTR-GFP expression cassette. Cultures were infected with different HIV-1 strains of interest, differing on their subtypes (A and B), and resistance to three major drug targets (reverse transcriptase, protease, and integrase). The culture contains serial dilutions of the molecule in the final concentrations from 0.156 to 5 μM for 833; 725 nM to 46.87 μM for 791; 1.95 to 62.5 μM for 892. Antiviral activity was evaluated in the assay by measuring inhibition of HIV-1 spread in a coculture of CEM-GXR cells containing 1% of HIV-1 infected (GFP positive) cells using flow cytometric analysis (GuavaSoft 2.2 software, Guava HT8, Millipore). To estimate the viable cell counts, the gate in a flow cytometer (Guava HT8) was set to cover 95% of the freshly passaged uninfected CEM-GXR cell or using ViaCount™. The same parameter was employed to gate viable cells in the inhibition assay and the number of gated cells was obtained by GuavaSoft 2.2 software. For assays using ViaCount™, sample acquisition and data analysis were performed with the selection of EasyFit analysis feature using the ViaCount™ software module.

| SMILES | inhibition of HIV-1 gene expression in CD4+ SupT1 cells [1] | IC50 [1] [µM] | IC50 [2] [nM] | HIV-1 replication of all viruses tested [2] |
| --- | --- | --- | --- | --- |
| Cc1cc(NCc2cccnc2)n2ncc(-c3ccc(Cl)cc3)c2n1 [Compound 791, 3-(4-chlorophenyl)-5-methyl-N-(3-pyridinylmethyl)pyrazolo[1,5-a]pyrimidin-7-amine] | maintained their inhibition | 26 | 4500 | significant reductions |
| O=C(NC(=S)NNC(=O)c1ccccc1O)c1ccc(-c2ccccc2)cc1 [Compound 833, N-([2-(2-hydroxybenzoyl)hydrazino]carbonothioyl}-4-biphenylcarboxamide] | maintained their inhibition | 3.5 | 1000 | significant reductions |
| COc1ccc(C=NNC(=O)c2ccccc2O)cc1O [Compound 892, 2-hydroxy-N′-(3-hydroxy-4-methoxybenzylidene)benzohydrazide] | not active | – | – | only modest inhibitory activity |
